2 substances from publication PMC7961786, “Magic Peptide: Unique Properties of the LRR11 Peptide in the Activation of Leukotriene Synthesis in Human Neutrophils” (International Journal of Molecular Sciences, 2021) can be followed below.

The subject of the data set is 5′-biotinylated C-CpG. The data set can be described thus: TSM acoustic biosensor, peptide binding to immobilized C-CpG. The text has this:
To characterize the interaction of the studied synthetic ODNs with the LRR11 peptide, we applied the thickness shear mode (TSM) acoustic biosensor method, which is based on the investigation of ultrasonic waves in piezoelectric materials such as AT-cut quartz. This approach involved immobilizing a 5′-biotinylated ODN on the surface of TSM transducer covered by NeutrAvidin and then adding the LRR11 peptide. An unrelated peptide (URP) with a random primary structure ([…]) was used as a negative control. The measurement procedure was divided into several steps, in which each immobilization stage was followed by washing with an appropriate buffer solution; when peptide solutions at different concentrations (from 1 to 100 nM) were added to the surface-modified TSM transducer, a wash with Hanks buffer was used before increasing the peptide concentration.
Based on Langmuir isotherm Equation (1), (1) Δfcc=Δfsmaxc/KD+c where Δfs(c) is the frequency change at a certain peptide concentration under equilibrium conditions, (Δfs)max is the maximum frequency change, c is the peptide concentration, and KD is the equilibrium constant of dissociation, we estimated the (Δfs)max and KD values for binding of the LRR11 peptide to C-CpG and B-CpG (Table 3).
Using Sauerbrey’s Equation (2), (2) Δf=−2f02Δm/Aμqρq where f0 is the fundamental resonance frequency (in our case 8 MHz), Δm is the change in mass (in grams) of the adsorbed layer on the crystal surface, A is the effective crystal area (in our case 0.2 cm^2), μq = 2.947 × 10^11 g × cm^−1s^−2 is the shear modulus of elasticity, and ρq = 2.648 g × cm^−3 is the crystal density, surface concentrations of NeutrAvidin, ODN and LRR11 peptide were estimated based on changes of resonance frequency (Figure 4). According to Equation (2), the surface density of molecules, σ (in molecules/cm^2), can be calculated as σ = ΔmNA/(A × Mw), where NA is Avogadro’s number (=6.023 × 10^23 mol^−1), and Mw represents the molecular weight of the corresponding compound (NeutrAvidin: 65 kDa, 5′-biotinylated C-CpG: 7115.4 Da, and LRR11: 3421 Da). Based on this approach, we obtained the following surface concentration values: 1.94 × 10^13 cm^−2 for NeutrAvidin, 3.37 × 10^13 cm^−2 for C-CpG and 2.4 × 10^13 cm^−2 for LRR11. The NeutrAvidin has four binding sites, two of which are available for biotinylated ODN binding. This is due to the fact that the other two sites are inaccessible due to NeutrAvidin chemisorption on the TSM surface. Thus, the number of available binding sites for the ODN is 3.88 × 10^13 cm^−2. […] Therefore, the surface of the TSM transducer is practically completely saturated by C-CpG. Estimation of the surface concentration of LRR11 evidences that at 50 nM concentration of this peptide, it occupies almost 70.6% of the ODN molecules. […]

As for “5′-tcgtcgttttcggcgcgcgccg-3′ (DNA TCGTCGTTTTCGGCGCGCGCCG; chemistry not fully specified) [C-CpG]”, under “LRR11-C-CpG complex, KA = 1/KD”, the KA amounted to 0.017 ± 0.007 nM⁻¹. Also, the “−(Δfs)max” value (LRR11 to immobilized C-CpG, Langmuir fit, Hanks buffer, room temperature, LRR11 1-100 nM, three independent experiments) worked out at 33.9 ± 6.4 Hz.
With “QLRKLNLSFNYQKRVSFAHLSLAPSFGSLV [LRR11, 30 amino acid peptide from leucine-rich repeat of TLR9]”, the “change of ∆fs at low LRR11 concentrations” value (1, 5, 10 nM LRR11, C-CpG) is on record as “not significant or small changes of ∆fs”.
